According to patent US7314885B2, “Pyrrole compounds useful as kinase inhibitors” (Vertex Pharmaceuticals Incorporated, priority 2003, dated 2008):

The compounds below were run against c-Met (Homo sapiens, UniProt P08581) (assay: Ki determination for the inhibition of c-Met (coupled enzyme system)). Settings: coupled enzyme assay; 200 μM ATP, 10 μM polyGluTyr, 80 nM c-Met, 30° C.
Assay type: biochemical
Procedure: Ki Determination for the Inhibition of c-Met
Compounds were screened for their ability to inhibit c-Met kinase activity using a standard coupled enzyme system (Fox et al., Protein Sci. 1998, 7, 2249). Reactions were carried out in a solution containing 100 mM HEPES (pH 7.5), 10 mM MgCl2, 25 mM NaCl, 300 μM NADH, 1 mM DTT, and 1.5% DMSO. Final substrate concentrations in the assay were 200 μM ATP (Sigma Chemicals, St Louis, Mo.) and 10 μM polyGluTyr (Sigma Chemical Company, St. Louis). Reactions were carried out at 30° C. and 80 nM c-Met. Final concentrations of the components of the coupled enzyme system were 2.5 mM phosphoenolpyruvate, 300 μM NADH, 30 μg/ml pyruvate kinase and 10 μg/ml lactate dehydrogenase.
An assay stock buffer solution was prepared containing all of the reagents listed above with the exception of ATP and a test compound of the present invention. The assay stock buffer solution (175 μl) was incubated in a 96 well plate with 5 μl of the test compound of the present invention at final concentrations spanning 0.006 μM to 12.5 μM at 30° C. for 10 minutes. Typically, a 12-point titration was conducted by preparing serial dilutions (from 10 mM compound stocks) with DMSO of the test compounds of the present invention in daughter plates. The reaction was initiated by the addition of 20 μl of ATP (final concentration 200 μM). Rates of reaction were obtained using a Molecular Devices Spectramax plate reader (Sunnyvale, Calif.) over 10 minutes at 30° C. The Ki values were determined from the rate data as a function of inhibitor concentration.

Chain of c-Met (P08581 25-1390): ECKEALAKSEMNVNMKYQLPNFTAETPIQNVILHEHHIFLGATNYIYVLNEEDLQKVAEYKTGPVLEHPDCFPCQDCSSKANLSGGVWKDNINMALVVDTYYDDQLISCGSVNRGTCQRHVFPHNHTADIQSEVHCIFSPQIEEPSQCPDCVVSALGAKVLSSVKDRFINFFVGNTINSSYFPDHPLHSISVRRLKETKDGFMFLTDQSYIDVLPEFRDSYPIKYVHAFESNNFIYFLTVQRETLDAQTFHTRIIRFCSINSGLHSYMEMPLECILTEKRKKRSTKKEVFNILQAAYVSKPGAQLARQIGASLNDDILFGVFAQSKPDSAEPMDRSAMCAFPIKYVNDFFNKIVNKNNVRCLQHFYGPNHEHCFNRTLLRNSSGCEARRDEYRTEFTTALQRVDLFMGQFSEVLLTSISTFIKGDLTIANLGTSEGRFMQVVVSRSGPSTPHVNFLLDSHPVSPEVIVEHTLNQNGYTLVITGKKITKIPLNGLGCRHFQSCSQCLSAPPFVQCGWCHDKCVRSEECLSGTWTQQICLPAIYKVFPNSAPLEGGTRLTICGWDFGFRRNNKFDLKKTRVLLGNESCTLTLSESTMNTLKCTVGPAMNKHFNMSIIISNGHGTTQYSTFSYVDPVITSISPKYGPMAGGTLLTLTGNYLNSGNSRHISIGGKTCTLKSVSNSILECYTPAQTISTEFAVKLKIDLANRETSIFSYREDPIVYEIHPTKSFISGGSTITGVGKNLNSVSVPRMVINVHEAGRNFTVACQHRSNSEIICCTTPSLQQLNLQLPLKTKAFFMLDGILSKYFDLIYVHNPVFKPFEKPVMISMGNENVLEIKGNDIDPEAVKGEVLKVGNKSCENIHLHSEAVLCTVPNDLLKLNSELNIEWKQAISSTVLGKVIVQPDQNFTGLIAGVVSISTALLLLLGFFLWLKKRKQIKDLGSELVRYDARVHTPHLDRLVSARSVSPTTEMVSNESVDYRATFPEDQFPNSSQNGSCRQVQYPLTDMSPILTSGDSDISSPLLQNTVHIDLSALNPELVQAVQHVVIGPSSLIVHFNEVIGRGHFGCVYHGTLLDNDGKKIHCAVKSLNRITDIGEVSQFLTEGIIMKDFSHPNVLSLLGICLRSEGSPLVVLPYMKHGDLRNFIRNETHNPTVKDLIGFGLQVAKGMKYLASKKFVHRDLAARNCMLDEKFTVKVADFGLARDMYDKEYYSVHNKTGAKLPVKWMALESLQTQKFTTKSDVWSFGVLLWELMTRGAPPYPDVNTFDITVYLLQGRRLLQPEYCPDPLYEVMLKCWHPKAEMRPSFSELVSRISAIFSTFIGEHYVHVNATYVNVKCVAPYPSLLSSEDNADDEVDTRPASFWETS

Row | SMILES | Ki
1 | O=C(NC[C@@H]1CCCO1)c1cc(-c2cnoc2-c2cccc(F)c2F)c[nH]1 [Compound I-4, 4-[5-(2,3-Difluoro-phenyl)-isoxazol-4-yl]-1H-pyrrole-2-carboxylic acid (S-tetrahydro-furan-2-ylmethyl)-amide] | 1 to 10 µM
2 | O=C(NC[C@@H]1CCCO1)c1cc(-n2cncc2-c2cccc(F)c2F)c[nH]1 [Compound I-10, 4-[5-(2,3-Difluoro-phenyl)-imidazol-1-yl]-1H-pyrrole-2-carboxylic acid (S-tetrahydro-furan-2-ylmethyl)-amide] | 1 to 10 µM
3 | O=C(c1cc(-n2nnnc2-c2cccc(F)c2F)c[nH]1)N1CC=CC1 [Compound I-38, (4-(5-(2,3-difluorophenyl)-1H-tetrazol-1-yl)-1H-pyrrol-2-yl)(2H-pyrrol-1(5H)-yl)methanone] | 1 to 10 µM
4 | O=C(c1cc(-c2nncn2-c2cccc(Cl)c2Cl)c[nH]1)N1CC=CC1 [Compound I-40] | 1 to 10 µM
5 | O=C(NCCCn1ccnc1)c1cc(-n2cnnc2-c2cccc(F)c2F)c[nH]1 [Compound I-44, N-(3-(1H-imidazol-1-yl)propyl)-4-(3-(2,3-difluorophenyl)-4H-1,2,4-triazol-4-yl)-1H-pyrrole-2-carboxamide] | > 10 µM
6 | O=C(NC[C@@H]1CCCO1)c1cc(-c2sncc2-c2cccc(F)c2F)c[nH]1 [Compound I-46, 4-(4-(2,3-difluorophenyl)isothiazol-5-yl)-N-(((S)-tetrahydrofuran-2-yl)methyl)-1H-pyrrrole-2-carboxamide] | 1 to 10 µM

The next lines start with the values.

Row | Ki | SMILES
7 | 1 to 10 µM | O=C(NC[C@@H]1CCCO1)c1cc(-c2cncn2-c2cccc(F)c2F)c[nH]1 (stereo in doubt) [Compound I-16, 4-[3-(2,3-Difluoro-phenyl)-3H-imidazol-4-yl]-1H-pyrrole-2-carboxylic acid (tetrahydro-furan-2-ylmethyl)-amide]
8 | 1 to 10 µM | O=C(NC[C@@H]1CCCO1)c1cc(-c2nnnn2-c2cccc(F)c2F)c[nH]1 (stereo in doubt) [Compound I-24, 4-[1-(2,3-Difluoro-phenyl)-1H-tetrazol-5-yl]-1H-pyrrole-2-carboxylic acid (tetrahydro-furan-2-ylmethyl)-amide]
9 | > 10 µM | O=C(c1cc(-c2nncn2-c2cccc(F)c2F)c[nH]1)N1CC=CC1 [Compound I-37, (4-(4-(2,3-difluorophenyl)-4H-1,2,4-triazol-3-yl)-1H-pyrrol-2-yl)(2H-pyrrol-1(5H)-yl)methanone]
10 | 1 to 10 µM | O=C(NC[C@@H]1CCCO1)c1cc(-c2nncn2-c2cccc(Cl)c2Cl)c[nH]1 [Compound I-39]
11 | 1 to 10 µM | O=C(NCCCn1ccnc1)c1cc(-c2nncn2-c2cccc(Cl)c2Cl)c[nH]1 [Compound I-41]
12 | 1 to 10 µM | O=C(c1cc(-c2[nH]nnc2-c2cccc(F)c2F)c[nH]1)N1CCCC1 [Compound I-47]
